{
  "source": "ChEMBL document CHEMBL1157277",
  "about": "“Antifungal and antibacterial metabolites from a sclerotium-colonizing isolate of Mortierella vinacea” (1999)",
  "key": {"Aspergillus flavus": {"test_system": "Aspergillus flavus", "assay": "Antimicrobial activity against Aspergillus flavus NRRL 6541 at 250 ug/disk by standard disk assay", "type": "functional, organism-based"}, "Fusarium verticillioides [1]": {"test_system": "Fusarium verticillioides", "assay": "Antimicrobial activity against Fusarium verticillioides NRRL 25457 at 250 ug/disk by standard disk assay after 48 hrs", "type": "functional", "details": "for zone of inhibition at 250 µg/disc: NRRL 25457, 48 h, read-out: IZ"}, "Bacillus subtilis [2]": {"test_system": "Bacillus subtilis", "assay": "Antimicrobial activity against Bacillus subtilis ATCC 6051 at 100 ug/disk by standard disk assay", "type": "functional", "details": "read-out: IZ"}, "Staphylococcus aureus [3]": {"test_system": "Staphylococcus aureus", "assay": "Antimicrobial activity against Staphylococcus aureus ATCC 14053 at 100 ug/disk by standard disk assay", "type": "functional", "details": "read-out: IZ"}, "Candida albicans [4]": {"test_system": "Candida albicans", "assay": "Antimicrobial activity against Candida albicans ATCC 10453 at 100 ug/disk by standard disk assay", "type": "functional", "details": "read-out: IZ"}, "Fusarium verticillioides [5]": {"test_system": "Fusarium verticillioides", "assay": "Antimicrobial activity against Fusarium verticillioides NRRL 25457 at 100 ug/disk by standard disk assay after 48 hrs", "type": "functional, organism-based"}, "Bacillus subtilis [6]": {"test_system": "Bacillus subtilis", "assay": "Antimicrobial activity against Bacillus subtilis ATCC 6051 at 50 ug/disk by standard disk assay", "type": "functional, organism-based"}, "Staphylococcus aureus [7]": {"test_system": "Staphylococcus aureus", "assay": "Antimicrobial activity against Staphylococcus aureus ATCC 14053 at 50 ug/disk by standard disk assay", "type": "functional, organism-based"}, "Candida albicans [8]": {"test_system": "Candida albicans", "assay": "Antimicrobial activity against Candida albicans ATCC 10453 at 50 ug/disk by standard disk assay", "type": "functional", "details": "read-out: IZ"}},
  "note": "Active and inactive are the calls of the source. The rule behind the calls is not given here.",
  "data": [
    {"compound": "O=C(O)c1cccnc1", "note": "[NIACIN]", "values": [
      {"measurement": "Activity", "setting": "Aspergillus flavus", "result": "inactive"},
      {"measurement": "zone of inhibition at 250 µg/disc", "setting": "Fusarium verticillioides [1]", "result": 30, "unit": "mm"}
    ]},
    {"compound": "COC(=O)CNC(=O)c1c(C)c(C)c(O)c(C)c1O", "values": [
      {"measurement": "Activity", "setting": "Aspergillus flavus", "result": "inactive"},
      {"measurement": "Activity", "setting": "Fusarium verticillioides [1]", "result": "inactive"}
    ]},
    {"compound": "COC(=O)c1c(C)c(C)c(O)c(C)c1O", "values": [
      {"measurement": "zone of inhibition at 100 µg/disc", "setting": "Bacillus subtilis [2]", "result": 10, "unit": "mm"},
      {"measurement": "Activity", "setting": "Aspergillus flavus", "result": "inactive"},
      {"measurement": "zone of inhibition at 250 µg/disc", "setting": "Fusarium verticillioides [1]", "result": 30, "unit": "mm"},
      {"measurement": "zone of inhibition at 100 µg/disc", "setting": "Staphylococcus aureus [3]", "result": 10, "unit": "mm"}
    ]},
    {"compound": "COC(=O)[C@H](C)NC(=O)c1c(C)c(C)c(O)c(C)c1O", "values": [
      {"measurement": "Activity", "setting": "Aspergillus flavus", "result": "inactive"},
      {"measurement": "Activity", "setting": "Fusarium verticillioides [1]", "result": "inactive"}
    ]},
    {"compound": "CSC(=O)c1c(C)c(C)c(O)c(C)c1O", "note": "[MORTIVINACIN A]", "values": [
      {"measurement": "Activity", "setting": "Aspergillus flavus", "result": "inactive"},
      {"measurement": "zone of inhibition at 250 µg/disc", "setting": "Fusarium verticillioides [1]", "result": 30, "unit": "mm"},
      {"measurement": "zone of inhibition at 100 µg/disc", "setting": "Candida albicans [4]", "result": 15, "unit": "mm"}
    ]},
    {"compound": "NYSTATIN", "values": [
      {"measurement": "inhibition zone (IZ)", "setting": "Fusarium verticillioides [5]", "result": 19, "unit": "mm"}
    ]},
    {"compound": "GENTAMICIN SULFATE", "values": [
      {"measurement": "inhibition zone (IZ)", "setting": "Bacillus subtilis [6]", "result": 24, "unit": "mm"},
      {"measurement": "inhibition zone (IZ)", "setting": "Staphylococcus aureus [7]", "result": 24, "unit": "mm"}
    ]},
    {"compound": "CCCCC[C@@H](O)[C@H]1C(=O)O[C@H](C)[C@@H](O)/C=C/C=C/C=C/C=C/C=C(\\C)[C@@H](O)C[C@H](O)C[C@H](O)C[C@H](O)C[C@H](O)C[C@H](O)C[C@@H]1O", "note": "[FILIPIN]", "values": [
      {"measurement": "zone of inhibition at 50 µg/disc", "setting": "Candida albicans [8]", "result": 15, "unit": "mm"}
    ]}
  ]
}
